Calls of active or inactive are those of the source.
How the values were obtained:
[1] = target: Dual specificity tyrosine-phosphorylation-regulated kinase 1A (Rattus norvegicus, UniProt Q63470); type: biochemical, Homo sapiens
[2] = target: FAD-linked sulfhydryl oxidase ALR (Homo sapiens, UniProt P55789); assay: ALR-catalysed DTT oxidation blockers – biochemical, H2O2 detection, luminescence, cherry-pick, dose response (AID 493248)
P388/ADR = assay: cells; type: functional; conditions: Mus musculus, P388/ADR
SN12K1 = assay: cells; type: functional; conditions: Homo sapiens, SN12K1
[3] = target: T1, Endoribonuclease toxin MazF (Escherichia coli K-12, UniProt P0AE70); assay: activation of MazEF endoribonuclease cleavage – biochemical, fluorescence, single-stranded RNA substrate, uHTS hits, dose response (AID 588481); type: functional
T1 sequence (P0AE70 whole entry): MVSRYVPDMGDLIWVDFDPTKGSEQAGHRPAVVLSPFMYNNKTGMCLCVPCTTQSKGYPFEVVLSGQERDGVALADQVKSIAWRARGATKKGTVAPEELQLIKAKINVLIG

Large T antigen = Large T antigen (Simian virus 40, UniProt P03070); type: functional, Betapolyomavirus macacae;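 also: Confirmatory-stage PubChem screen for compounds that inhibit SV40 T antigen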
Chain of Large T antigen (P03070 whole entry): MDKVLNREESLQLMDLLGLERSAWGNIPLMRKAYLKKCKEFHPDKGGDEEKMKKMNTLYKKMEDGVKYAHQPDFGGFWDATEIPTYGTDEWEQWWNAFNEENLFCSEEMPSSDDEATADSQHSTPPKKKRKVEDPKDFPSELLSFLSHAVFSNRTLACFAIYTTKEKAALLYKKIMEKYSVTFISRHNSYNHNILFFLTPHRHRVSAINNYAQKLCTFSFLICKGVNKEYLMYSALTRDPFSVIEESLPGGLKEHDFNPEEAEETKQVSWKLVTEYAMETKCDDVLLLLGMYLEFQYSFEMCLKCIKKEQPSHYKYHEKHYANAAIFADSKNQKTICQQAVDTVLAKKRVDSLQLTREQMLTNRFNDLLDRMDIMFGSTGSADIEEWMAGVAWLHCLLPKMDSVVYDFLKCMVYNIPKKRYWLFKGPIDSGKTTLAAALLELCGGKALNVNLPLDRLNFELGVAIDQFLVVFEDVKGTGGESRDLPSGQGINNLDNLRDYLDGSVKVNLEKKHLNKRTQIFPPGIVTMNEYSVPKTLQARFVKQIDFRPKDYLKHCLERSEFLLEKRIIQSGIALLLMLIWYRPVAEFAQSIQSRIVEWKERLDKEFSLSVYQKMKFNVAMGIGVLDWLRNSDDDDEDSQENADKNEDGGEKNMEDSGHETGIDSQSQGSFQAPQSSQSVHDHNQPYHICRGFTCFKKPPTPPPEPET

[4] = luciferase inhibitors in kinase-free ADP detection – biochemical, luminescence, cherry-pick, set 02, artefact control for Dyrk1A inhibitor project, dose response (AID 588348)
[5] = target: T1, Endoribonuclease toxin MazF; assay: substrate-only fluorescence increase artefacts – biochemical, single-stranded RNase substrate, counter-screen for MazEF activator project, dose response (AID 588502); type: functional
P388 = assay: cells; type: functional; conditions: Mus musculus, P388
[6] = target: T2, Sentrin-specific protease 7 (Homo sapiens, UniProt Q9BQF6); assay: inhibition of human SENP7 cleavage activity – biochemical, luminescence, SAR follow-up (AID 504497); type: functional
T2 sequence (Q9BQF6 whole entry): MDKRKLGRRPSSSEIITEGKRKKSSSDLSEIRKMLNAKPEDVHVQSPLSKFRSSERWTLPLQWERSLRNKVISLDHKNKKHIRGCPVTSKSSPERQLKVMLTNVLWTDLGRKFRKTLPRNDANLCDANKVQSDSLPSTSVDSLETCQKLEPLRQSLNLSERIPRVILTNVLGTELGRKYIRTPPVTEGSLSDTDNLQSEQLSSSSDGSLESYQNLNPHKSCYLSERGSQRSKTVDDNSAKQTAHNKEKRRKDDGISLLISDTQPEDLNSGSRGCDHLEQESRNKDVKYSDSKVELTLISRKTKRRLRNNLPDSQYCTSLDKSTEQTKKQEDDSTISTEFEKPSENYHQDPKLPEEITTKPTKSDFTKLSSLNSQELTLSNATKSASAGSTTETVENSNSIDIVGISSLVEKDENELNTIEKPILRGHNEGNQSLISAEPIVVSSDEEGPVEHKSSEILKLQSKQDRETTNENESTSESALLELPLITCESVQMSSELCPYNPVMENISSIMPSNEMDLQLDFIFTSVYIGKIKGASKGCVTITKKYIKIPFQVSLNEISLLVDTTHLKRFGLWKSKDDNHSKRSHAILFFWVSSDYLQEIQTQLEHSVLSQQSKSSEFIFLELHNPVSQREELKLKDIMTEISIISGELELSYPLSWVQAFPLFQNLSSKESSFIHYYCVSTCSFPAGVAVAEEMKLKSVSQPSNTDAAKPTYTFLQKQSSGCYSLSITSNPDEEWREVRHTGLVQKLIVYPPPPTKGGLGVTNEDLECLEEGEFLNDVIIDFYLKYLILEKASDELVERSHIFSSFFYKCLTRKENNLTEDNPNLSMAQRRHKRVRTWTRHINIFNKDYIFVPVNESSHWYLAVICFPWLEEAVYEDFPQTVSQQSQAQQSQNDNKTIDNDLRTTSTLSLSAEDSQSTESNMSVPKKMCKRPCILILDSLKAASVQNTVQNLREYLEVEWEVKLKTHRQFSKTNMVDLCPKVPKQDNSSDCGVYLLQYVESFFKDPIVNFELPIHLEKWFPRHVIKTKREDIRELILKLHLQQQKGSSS

[7] = target: T3, Sentrin-specific protease 6 (Homo sapiens, UniProt Q9GZR1); assay: SAR Analysis of small molecule inhibitors of Sentrin-specific protease 6 (SENP6) using a Luminescent assay. [Related pubchem assays (depositor defined):AID2582, AID2599]; type: functional
T3 sequence (Q9GZR1 whole entry): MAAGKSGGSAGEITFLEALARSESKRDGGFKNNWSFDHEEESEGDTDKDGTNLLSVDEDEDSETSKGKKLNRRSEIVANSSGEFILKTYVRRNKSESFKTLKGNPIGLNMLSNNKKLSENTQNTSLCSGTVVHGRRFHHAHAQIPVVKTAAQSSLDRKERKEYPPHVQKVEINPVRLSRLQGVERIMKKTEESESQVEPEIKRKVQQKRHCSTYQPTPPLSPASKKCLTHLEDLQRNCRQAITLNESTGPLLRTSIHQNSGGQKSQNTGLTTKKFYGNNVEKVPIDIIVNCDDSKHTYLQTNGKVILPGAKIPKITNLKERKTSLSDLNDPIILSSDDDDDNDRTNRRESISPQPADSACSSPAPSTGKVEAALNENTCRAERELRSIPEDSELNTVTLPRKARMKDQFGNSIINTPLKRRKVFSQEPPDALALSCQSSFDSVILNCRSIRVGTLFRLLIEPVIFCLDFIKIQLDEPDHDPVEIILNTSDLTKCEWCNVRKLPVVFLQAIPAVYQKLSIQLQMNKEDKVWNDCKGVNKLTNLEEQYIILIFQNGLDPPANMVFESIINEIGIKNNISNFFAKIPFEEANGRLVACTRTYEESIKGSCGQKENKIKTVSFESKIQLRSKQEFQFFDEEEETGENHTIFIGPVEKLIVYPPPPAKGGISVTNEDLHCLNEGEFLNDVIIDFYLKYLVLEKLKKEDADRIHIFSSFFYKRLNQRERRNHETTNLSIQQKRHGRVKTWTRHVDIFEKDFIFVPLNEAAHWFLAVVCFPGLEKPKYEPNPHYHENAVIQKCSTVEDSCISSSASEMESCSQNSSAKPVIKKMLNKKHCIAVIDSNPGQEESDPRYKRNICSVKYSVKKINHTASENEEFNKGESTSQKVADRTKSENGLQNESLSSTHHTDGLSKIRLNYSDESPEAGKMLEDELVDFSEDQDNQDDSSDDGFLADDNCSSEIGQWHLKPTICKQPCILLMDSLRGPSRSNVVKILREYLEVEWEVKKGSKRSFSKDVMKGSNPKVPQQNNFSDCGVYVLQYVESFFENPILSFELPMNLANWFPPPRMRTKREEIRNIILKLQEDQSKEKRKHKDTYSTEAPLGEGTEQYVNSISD

[8] = target: T2, Sentrin-specific protease 7; assay: inhibition of human SENP7 cleavage activity – biochemical, luminescence, set 2, SAR follow-up (AID 588600); type: functional
[9] = target: T4, Sentrin-specific protease 8 (Homo sapiens, UniProt Q96LD8); assay: inhibition of human SENP8 cleavage activity – biochemical, luminescence, SAR follow-up (AID 504501); type: functional
T4 sequence (Q96LD8 whole entry): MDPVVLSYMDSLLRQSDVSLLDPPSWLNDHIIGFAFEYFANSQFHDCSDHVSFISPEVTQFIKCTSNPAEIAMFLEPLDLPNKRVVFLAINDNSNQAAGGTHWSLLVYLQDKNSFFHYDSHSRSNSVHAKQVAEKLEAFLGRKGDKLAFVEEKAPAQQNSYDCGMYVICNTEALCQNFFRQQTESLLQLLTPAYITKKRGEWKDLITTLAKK

Caspase-3 [10] = target: T5, Caspase-3 (Homo sapiens, UniProt P42574); assay: inhibition of recombinant caspase-3 activity – biochemical, luminescence, set 2, selectivity assay for SENP protease inhibitor project, SAR follow-up (AID 588599); type: functional
T5 sequence (P42574 whole entry): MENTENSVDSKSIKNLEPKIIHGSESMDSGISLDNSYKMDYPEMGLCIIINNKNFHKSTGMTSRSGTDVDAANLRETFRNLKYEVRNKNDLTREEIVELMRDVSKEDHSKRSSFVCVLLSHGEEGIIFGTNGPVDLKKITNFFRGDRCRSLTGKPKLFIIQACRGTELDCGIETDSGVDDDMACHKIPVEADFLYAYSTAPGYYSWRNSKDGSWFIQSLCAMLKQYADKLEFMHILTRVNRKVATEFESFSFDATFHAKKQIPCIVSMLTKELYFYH

[11] = target: T4, Sentrin-specific protease 8; assay: inhibition of sentrin protease 8 – biochemical, luminescence, set 2, SAR follow-up (AID 588601); type: functional
Caspase-3 [12] = target: T5, Caspase-3; assay: SAR Analysis of small molecule inhibitors of Sentrin-specific proteases (SENPs) using a Caspase-3 Selectivity assay. [Related pubchem assays (depositor defined):AID2540, AID2599, AID434973, AID489001]; type: functional
[13] = target: T3, Sentrin-specific protease 6; assay: inhibition of human SENP6 catalytic domain – biochemical, luminescence, set 2, SAR follow-up (AID 588598); type: functional
Phospholipase D2 = Phospholipase D2 (Homo sapiens, UniProt O14939); assay: cellular phospholipase D2 inhibition IC50 – cell-based, dose response (AID 602147); type: functional;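 also: cellular assay in HEK293 cells overexpressing GFP-tagged PLD2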
Chain of Phospholipase D2 (O14939 whole entry): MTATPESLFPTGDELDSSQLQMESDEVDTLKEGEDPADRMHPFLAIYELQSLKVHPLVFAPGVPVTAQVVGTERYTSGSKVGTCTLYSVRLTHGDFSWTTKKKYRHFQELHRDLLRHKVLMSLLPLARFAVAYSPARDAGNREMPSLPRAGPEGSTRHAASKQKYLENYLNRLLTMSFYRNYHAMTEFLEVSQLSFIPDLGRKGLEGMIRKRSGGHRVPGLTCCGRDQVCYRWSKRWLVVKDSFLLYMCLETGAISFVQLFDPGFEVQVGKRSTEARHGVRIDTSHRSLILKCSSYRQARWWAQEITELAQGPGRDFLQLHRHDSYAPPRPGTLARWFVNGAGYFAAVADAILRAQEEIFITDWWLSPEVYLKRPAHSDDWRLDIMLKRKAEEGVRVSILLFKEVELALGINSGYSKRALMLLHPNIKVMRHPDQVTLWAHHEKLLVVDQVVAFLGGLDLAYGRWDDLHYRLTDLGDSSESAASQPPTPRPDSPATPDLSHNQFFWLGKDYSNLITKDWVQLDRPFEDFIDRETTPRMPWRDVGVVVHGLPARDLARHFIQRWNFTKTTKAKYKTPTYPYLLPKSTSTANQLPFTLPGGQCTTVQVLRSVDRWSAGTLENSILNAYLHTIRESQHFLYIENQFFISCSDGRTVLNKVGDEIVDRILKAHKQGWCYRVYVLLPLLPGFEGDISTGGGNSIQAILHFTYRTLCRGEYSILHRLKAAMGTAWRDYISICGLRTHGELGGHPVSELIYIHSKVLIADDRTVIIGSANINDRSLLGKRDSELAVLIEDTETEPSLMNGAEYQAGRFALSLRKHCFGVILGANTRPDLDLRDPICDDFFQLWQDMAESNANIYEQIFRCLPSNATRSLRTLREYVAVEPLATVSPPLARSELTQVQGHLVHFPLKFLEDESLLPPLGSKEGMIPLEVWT

Phospholipase D1 = Phospholipase D1 (Homo sapiens, UniProt Q13393); assay: cellular phospholipase D1 inhibition IC50 – cell-based, dose response (AID 602151); type: functional;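 also: cellular PLD1 assay in Calu-1 cells stimulated with PMA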
Chain of Phospholipase D1 (Q13393 whole entry): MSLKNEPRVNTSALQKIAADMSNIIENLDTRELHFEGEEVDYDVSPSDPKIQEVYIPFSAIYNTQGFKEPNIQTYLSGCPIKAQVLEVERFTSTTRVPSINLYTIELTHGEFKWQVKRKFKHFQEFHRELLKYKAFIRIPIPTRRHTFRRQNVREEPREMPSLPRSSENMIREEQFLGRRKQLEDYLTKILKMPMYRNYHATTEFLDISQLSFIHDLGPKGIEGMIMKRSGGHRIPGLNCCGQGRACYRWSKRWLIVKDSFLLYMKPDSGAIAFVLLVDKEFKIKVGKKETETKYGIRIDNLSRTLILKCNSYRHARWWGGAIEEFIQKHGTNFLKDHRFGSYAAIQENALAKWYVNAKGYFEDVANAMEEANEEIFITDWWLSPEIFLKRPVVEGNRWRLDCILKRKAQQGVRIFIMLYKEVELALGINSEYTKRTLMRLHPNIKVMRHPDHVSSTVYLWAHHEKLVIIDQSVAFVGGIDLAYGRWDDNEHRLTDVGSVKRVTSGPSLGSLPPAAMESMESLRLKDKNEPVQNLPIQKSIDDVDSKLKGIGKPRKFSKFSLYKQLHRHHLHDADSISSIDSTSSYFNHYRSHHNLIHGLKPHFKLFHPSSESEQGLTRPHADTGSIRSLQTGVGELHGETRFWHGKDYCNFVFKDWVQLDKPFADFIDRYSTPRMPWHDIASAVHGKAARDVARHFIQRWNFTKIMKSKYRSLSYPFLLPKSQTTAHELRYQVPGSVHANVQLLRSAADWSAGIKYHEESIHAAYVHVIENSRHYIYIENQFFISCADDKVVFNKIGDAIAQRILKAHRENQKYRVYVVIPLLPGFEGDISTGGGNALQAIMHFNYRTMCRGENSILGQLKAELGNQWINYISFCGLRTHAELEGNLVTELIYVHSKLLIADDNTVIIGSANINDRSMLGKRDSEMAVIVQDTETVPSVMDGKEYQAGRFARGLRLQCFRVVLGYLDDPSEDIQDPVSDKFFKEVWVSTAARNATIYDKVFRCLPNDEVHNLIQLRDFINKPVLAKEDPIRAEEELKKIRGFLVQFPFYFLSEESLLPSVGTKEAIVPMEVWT

[14] = target: T1, Endoribonuclease toxin MazF; assay: SAR analysis of small molecule activators of the MazEF TA System via a fluorescence-based single-stranded RNase assay counterscreen. [Related pubchem assays (depositor defined):AID504720, AID504743]; type: functional
[15] = target: T1, Endoribonuclease toxin MazF; assay: MazEF toxin-antitoxin RNase activation – biochemical, fluorescence, single-stranded RNA substrate, SAR follow-up (AID 588603); type: functional
MEF = assay: SAR analysis of small molecule cytotoxicity of MazEF TA System activators in embryonic fibroblast (MEF) cells. [Related pubchem assays (depositor defined):AID504720, AID504743]; type: functional; conditions: Mus musculus

Chain of FAD-linked sulfhydryl oxidase ALR (P55789 whole entry): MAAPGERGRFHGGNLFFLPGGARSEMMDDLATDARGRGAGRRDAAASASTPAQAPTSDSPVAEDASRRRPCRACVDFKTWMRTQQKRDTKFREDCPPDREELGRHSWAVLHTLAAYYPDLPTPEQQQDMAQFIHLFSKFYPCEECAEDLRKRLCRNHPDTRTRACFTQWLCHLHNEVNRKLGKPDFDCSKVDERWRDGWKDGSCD

In the case of `Oc1cc(O)cc(/C=C/c2ccc(O)c(O)c2)c1` [PICEATANNOL], the AC50 [1] is reported as 7.53 µM (active), the AC50 [2] is reported as 0.689 µM (active) and the GI50 (P388/ADR) is reported as 7.76 µM (inactive). The GI50 (SN12K1) was 3.94 µM (inactive), the EC50 [3] was > 99 µM (inactive) and the IC50 (Large T antigen) was 16.4 µM (active). The AC50 [4] was 27.7 µM (active), the EC50 [5] was > 99 µM (inactive) and the GI50 (P388) was 5.48 µM (inactive).
With `O=C(Nc1nc2ccc(Cl)cc2s1)c1ccco1` the IC50 [6] was 1 µM (active), the IC50 [7] was 1.4 µM (active) and the IC50 [8] was 1.23 µM (active). The IC50 [9] was 1.7 µM (active), the IC50 (Caspase-3 [10]) was 1.42 µM (active) and the IC50 [11] was 1.08 µM (active). The IC50 (Caspase-3 [12]) was 1.5 µM (active) and the IC50 [13] was 1.16 µM (active).
With `C[C@@H](CN1CCC(n2c(=O)[nH]c3ccccc32)CC1)NC(=O)c1ccc(C(F)(F)F)cc1` the IC50 (Phospholipase D2) was 20 µM (active) and the IC50 (Phospholipase D1) was 0.121 µM (active).
In the case of `Cc1ccc(CNC(=O)c2ccc(CNS(=O)(=O)c3ccc4c(c3)C(C)(C)C(=O)N4C)cc2)o1`, the EC50 [14] is reported as > 99 µM (inactive), the EC50 [15] is reported as 9.72 µM (active) and the EC50 [3] is reported as 9.43 µM (active). The EC50 [5] was > 99 µM (inactive) and the CC50 (MEF) was > 99 µM (inactive).

Reference: ChEMBL document CHEMBL1201862, “PubChem BioAssay data set” (2004)
